Experimental data from patent US20200369728A1, “PEPTIDOMIMETIC MACROCYCLES AND USES THEREOF” (Aileron Therapeutics, Inc., priority 2015, published 2020).
Bridge positions count the residues as written; N and C are the ends. Square brackets hold non-standard residues; d marks the D form. Peptide text beside a SMILES is read from it. R8 = C=CCCCCCC[C@@](C)(N)C(=O)O; S5 = C=CCCC[C@](C)(N)C(=O)O

Columns and labels:
[1] = test system: RKO; experiment: Cell viability assay (MTT), RKO; details: read-out: RKO EC50 (72 h)
[2] = test system: SJSA-1 cells; experiment: Cell lysis by peptidomimetic macrocycles (LDH release); format: cell-based; details: SJSA-1, 1 h
In short: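 Membrane lysis measured as supernatant LDH after a 1 h, 37 °C exposure of SJSA-1 cells, held in RPMI with 1% FBS, to macrocycles at final 6.25-50 μM with 0.5% DMSO. Lytic references were 10 μM melittin and 1% Triton X-100; DMSO alone served as non-lytic control.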

[3] = test system: Caspase 3; experiment: Caspase 3 detection assay in SJSA1 cells; format: cell-based; details: SJSA1, 48 h, Caspase 3 activation over DMSO-treated cells

Compound: CCCC[C@H](NC(=O)[C@H](C)NC(=O)[C@H](C)NC(=O)[C@]1(C)CCC/C=C/CCCCCC[C@@](C)(NC(=O)[C@H](Cc2ccccc2)NC(=O)[C@@H](NC(=O)[C@H](CC(C)C)NC(C)=O)[C@@H](C)O)C(=O)N[C@@H](C)C(=O)N[C@@H](Cc2ccc(O)cc2)C(=O)N[C@@](C)(Cc2c[nH]c3ccccc23)C(=O)N[C@@H](C)C(=O)N[C@@H](CCC(N)=O)C(=O)N[C@@H](CC(C)C)C(=O)N1)C(=O)N[C@@H](C)C(N)=O [compound 388]
- EC50 [1]: 15 to 30 µM

Compound: CCCC[C@H](NC(=O)[C@H](C)NC(=O)[C@H](C)NC(=O)[C@]1(C)CCCC=CCCCCCC[C@@](C)(NC(=O)[C@H](Cc2ccccc2)NC(=O)[C@@H](NC(=O)[C@H](CC(C)C)NC(=O)CN(C)C)[C@@H](C)O)C(=O)N[C@@H](C)C(=O)N[C@@H](Cc2ccc(O)cc2)C(=O)N[C@@H](Cc2c[nH]c3ccccc23)C(=O)N[C@@H](C)C(=O)N[C@@H](CCC(N)=O)C(=O)N[C@@H](CC(C)C)C(=O)N1)C(=O)N[C@@H](C)C(N)=O (single isomer, unassigned) [compound 442]
- EC50 [1]: < 5 µM

Compound: CCCC[C@H](NC(=O)[C@H](C)NC(=O)[C@H](C)NC(=O)[C@]1(C)CCCCCCCCCCC[C@@](C)(NC(=O)[C@H](Cc2ccccc2)NC(=O)[C@@H](NC(=O)[C@H](CC(C)C)NC(C)=O)[C@@H](C)O)C(=O)N[C@@H](C)C(=O)N[C@@H](Cc2ccc(O)cc2)C(=O)N[C@@H](Cc2c[nH]c3ccccc23)C(=O)N[C@@H](C)C(=O)N[C@@H](CCC(N)=O)C(=O)N[C@@H](CC(C)C)C(=O)N1)C(=O)N[C@@H](C)C(N)=O [compound 444]
- EC50 [1]: < 5 µM

Compound: CC(C)C[C@H](NC(=O)CN(C)C)C(=O)N[C@H](C(=O)N[C@@H](Cc1ccccc1)C(=O)N[C@]1(C)CCCCCC/C=C/CCC[C@@](C)(C(=O)N[C@@H](C)C(=O)N[C@@H](C)C(=O)N[C@@H](C)C(=O)N[C@@H](C)C(=O)N[C@@H](C)C(=O)N[C@H](C)C(N)=O)NC(=O)[C@H](CC(C)C)NC(=O)[C@H](CCC(N)=O)NC(=O)[C@H](C)NC(=O)[C@H](Cc2c[nH]c3ccccc23)NC(=O)[C@H](Cc2ccc(O)cc2)NC(=O)[C@H](C)NC1=O)[C@@H](C)O [compound 437]
- EC50 [1]: < 5 µM

Compound: CC(C)C[C@H](NC(=O)CN(C)C)C(=O)N[C@H](C(=O)N[C@@H](Cc1ccccc1)C(=O)N[C@]1(C)CCCCCCC=CCCC[C@@](C)(C(=O)N[C@@H](C)C(=O)N[C@@H](C)C(=O)N[C@@H](C)C(=O)N[C@@H](C)C(=O)N[C@@H](C)C(=O)N[C@H](C)C(N)=O)NC(=O)[C@H](CC(C)C)NC(=O)[C@H](CCC(N)=O)NC(=O)[C@H](C)NC(=O)[C@H](Cc2c[nH]c3ccccc23)NC(=O)[C@H](Cc2ccc(O)cc2)NC(=O)[C@H](C)NC1=O)[C@@H](C)O (single isomer, unassigned) [compound 436]
- EC50 [1]: < 5 µM

Compound: CC[C@H](C)[C@H](NC(=O)[C@H](C)NC(=O)[C@H](C)NC(=O)[C@]1(C)CCCC=CCCCCCC[C@@](C)(NC(=O)[C@H](Cc2ccccc2)NC(=O)[C@@H](NC(=O)[C@H](CC(C)C)NC(=O)CN(C)C)[C@@H](C)O)C(=O)N[C@@H](CCC(=O)O)C(=O)N[C@@H](Cc2ccc(C(=O)O)cc2)C(=O)N[C@@H](Cc2c[nH]c3ccccc23)C(=O)N[C@@H](C)C(=O)N[C@@H](CCC(N)=O)C(=O)N[C@@H](CC2CCC2)C(=O)N1)C(=O)N[C@H](C)C(N)=O (single isomer, unassigned) [compound 440]
- EC50 [1]: 15 to 30 µM

Compound: CC(=O)N[C@@H](CC(C)C)C(=O)N[C@H](C(=O)N[C@@H](Cc1ccccc1)C(=O)N[C@]1(C)CCCCCCCCCCC[C@@](C)(C(=O)N[C@@H](C)C(=O)N[C@@H](C)C(=O)N[C@@H](C)C(=O)N[C@@H](C)C(=O)N[C@@H](C)C(=O)N[C@H](C)C(N)=O)NC(=O)[C@H](CC(C)C)NC(=O)[C@H](CCC(N)=O)NC(=O)[C@H](C)NC(=O)[C@H](Cc2c[nH]c3ccccc23)NC(=O)[C@H](Cc2ccc(O)cc2)NC(=O)[C@H](CCC(=O)O)NC1=O)[C@@H](C)O [compound 445]
- EC50 [1]: 5 to 15 µM

Compound: CCCC[C@H](NC(=O)[C@H](C)NC(=O)[C@H](C)NC(=O)[C@]1(C)CCCC=CCCCCCC[C@@](C)(NC(=O)[C@H](Cc2ccccc2)NC(=O)[C@@H](NC(=O)[C@H](CC(C)C)NC(C)=O)[C@@H](C)O)C(=O)N[C@@H](C)C(=O)N[C@@H](Cc2ccc(O)cc2)C(=O)N[C@@H](Cc2c[nH]c3ccccc23)C(=O)NC(C)(C)C(=O)N[C@@H](CCC(N)=O)C(=O)N[C@@H](CC(C)C)C(=O)N1)C(=O)N[C@@H](C)C(N)=O (single isomer, unassigned) [compound 390]
- EC50 [1]: < 5 µM

Compound: CC(=O)N[C@@H](CC(C)C)C(=O)N[C@H](C(=O)N[C@@H](Cc1ccccc1)C(=O)N[C@]1(C)CCCCCCC=CCCC[C@@](C)(C(=O)N[C@@H](CO)C(=O)N[C@@H](C)C(=O)N[C@@H](C)C(N)=O)NC(=O)[C@H](C2CCCC2)NC(=O)[C@H](CCC(N)=O)NC(=O)[C@H](C)NC(=O)[C@H](Cc2c[nH]c3ccccc23)NC(=O)[C@H](Cc2ccc(O)cc2)NC(=O)[C@H](CCC(=O)O)NC1=O)[C@@H](C)O (single isomer, unassigned) [compound 149]
- 6.25 μM % Lysed cells (1 h LDH) [2]: 6%
- 25 μM % Lysed cells (1 h LDH) [2]: 7%
- 50 μM % Lysed cells (1 h LDH) [2]: 21%
- caspase 0.3 μM [3]: 1
- caspase 3 μM [3]: 2
- caspase 10 μM [3]: 4
- caspase 30 μM [3]: 10

Compound: CC(=O)N[C@@H](CC(C)C)C(=O)N[C@H](C(=O)N[C@@H](Cc1ccccc1)C(=O)N[C@]1(C)CCCCCCC=CCCC[C@@](C)(C(=O)N[C@@H](C)C(=O)N[C@@H](C)C(=O)N[C@@H](C)C(=O)N[C@@H](C)C(=O)N[C@@H](C)C(=O)N[C@H](C)C(N)=O)NC(=O)[C@H](CC2CCC2)NC(=O)[C@H](CCC(N)=O)NC(=O)[C@H](C)NC(=O)[C@H](Cc2c[nH]c3ccccc23)NC(=O)[C@H](Cc2ccc(O)cc2)NC(=O)[C@H](CCC(=O)O)NC1=O)[C@@H](C)O (single isomer, unassigned) [compound 347]
- 6.25 μM % Lysed cells (1 h LDH) [2]: 0%
- 25 μM % Lysed cells (1 h LDH) [2]: 0%
- 50 μM % Lysed cells (1 h LDH) [2]: 0%
- caspase 0.3 μM [3]: 2
- caspase 1 μM [3]: 3
- caspase 3 μM [3]: 5
- caspase 10 μM [3]: 8
- caspase 30 μM [3]: 29

Compound: CC(C)C[C@H](NC(=O)CN(C)C)C(=O)N[C@H](C(=O)N[C@@H](Cc1ccccc1)C(=O)N[C@]1(C)CCCCCCC=CCCC[C@@](C)(C(=O)N[C@@H](CO)C(=O)N[C@@H](C)C(=O)N[C@@H](C)C(N)=O)NC(=O)[C@H](CC2CCC2)NC(=O)[C@H](CCC(N)=O)NC(=O)[C@H](C)NC(=O)[C@H](Cc2c[nH]c3ccccc23)NC(=O)[C@H](Cc2ccc(O)cc2)NC(=O)[C@H](CCC(=O)O)NC1=O)[C@@H](C)O [compound 435]
- EC50 [1]: 15 to 30 µM

Compound: CC[C@H](C)[C@H](NC(=O)[C@H](C)NC(=O)[C@H](C)NC(=O)[C@]1(C)CCCC=CCCCCCC[C@@](C)(NC(=O)[C@H](Cc2ccccc2)NC(=O)[C@@H](NC(=O)[C@H](CC(C)C)NC(C)=O)[C@@H](C)O)C(=O)N[C@@H](C)C(=O)N[C@@H](Cc2c[nH]cn2)C(=O)N[C@@H](Cc2c[nH]c3ccccc23)C(=O)N[C@@H](C)C(=O)N[C@@H](CCC(N)=O)C(=O)N[C@@H](CC(C)C)C(=O)N1)C(=O)N[C@H](C)C(N)=O [compound 170] (Ac-LTF[R8]AHWAQL[S5]AAI[dA]-NH2; staple 4-11)
- 6.25 μM % Lysed cells (1 h LDH) [2]: 2%
- 25 μM % Lysed cells (1 h LDH) [2]: 1%
- 50 μM % Lysed cells (1 h LDH) [2]: −1%
- caspase 0.3 μM [3]: 1
- caspase 3 μM [3]: 1
- caspase 10 μM [3]: 16
- caspase 30 μM [3]: 20

Compound: CCCC[C@H](NC(=O)[C@H](C)NC(=O)[C@H](C)NC(=O)[C@]1(C)CCCC=CCCCCCC[C@@](C)(NC(=O)[C@H](Cc2ccccc2)NC(=O)[C@@H](NC(=O)[C@H](CC(C)C)NC(C)=O)[C@@H](C)O)C(=O)N[C@@H](C)C(=O)N[C@@H](Cc2ccc(O)cc2)C(=O)N(C)[C@@H](Cc2c[nH]c3ccccc23)C(=O)N[C@@H](C)C(=O)N[C@@H](CCC(N)=O)C(=O)N[C@@H](CC(C)C)C(=O)N1)C(=O)N[C@@H](C)C(N)=O (single isomer, unassigned) [compound 386]
- EC50 [1]: < 5 µM

Compound: CC[C@H](C)[C@H](NC(C)=O)C(=O)N[C@H](C(=O)N[C@@H](Cc1ccccc1)C(=O)N[C@]1(C)CCCCCCC=CCCC[C@@](C)(C(=O)N[C@@H](C)C(=O)N[C@@H](C)C(=O)N[C@H](C(=O)N[C@H](C)C(N)=O)[C@@H](C)CC)NC(=O)[C@H](CC(C)C)NC(=O)[C@H](CCC(N)=O)NC(=O)[C@H](C(C)C)NC(=O)[C@H](Cc2c[nH]c3ccccc23)NC(=O)[C@H](Cc2ccc(O)cc2)NC(=O)[C@H](Cc2ccccc2)NC1=O)[C@@H](C)O [compound 177] (Ac-ITF[R8]FYWVQL[S5]AAI[dA]-NH2; staple 4-11)
- 6.25 μM % Lysed cells (1 h LDH) [2]: −1%
- 25 μM % Lysed cells (1 h LDH) [2]: 0%
- 50 μM % Lysed cells (1 h LDH) [2]: 1%
- caspase 0.3 μM [3]: 1
- caspase 3 μM [3]: 1
- caspase 10 μM [3]: 8
- caspase 30 μM [3]: 20

Compound: CC(=O)N[C@@H](CC(C)C)C(=O)N[C@H](C(=O)N[C@@H](Cc1ccccc1)C(=O)N[C@]1(C)CCCCCCC=CCCC[C@@](C)(C(=O)N[C@@H](C)C(=O)N[C@@H](C)C(=O)N[C@@H](C)C(=O)N[C@@H](C)C(=O)N[C@@H](C)C(=O)N[C@@H](C)C(=O)N[C@H](C)C(N)=O)NC(=O)[C@H](CC(C)C)NC(=O)[C@H](CCC(N)=O)NC(=O)[C@H](C)NC(=O)[C@H](Cc2c[nH]c3ccccc23)NC(=O)[C@H](Cc2ccc(O)cc2)NC(=O)[C@H](C)NC1=O)[C@@H](C)O (single isomer, unassigned) [compound 317]
- 6.25 μM % Lysed cells (1 h LDH) [2]: 0%
- 25 μM % Lysed cells (1 h LDH) [2]: 0%
- 50 μM % Lysed cells (1 h LDH) [2]: 0%
- caspase 0.3 μM [3]: 3
- caspase 1 μM [3]: 4
- caspase 3 μM [3]: 9
- caspase 10 μM [3]: 26
- caspase 30 μM [3]: 35
